In patent US10280416B1, “Magnetic ionic liquids, methods of making and uses thereof as solvents in the extraction and preservation of nucleic acids” (The University of Toledo, priority 2015, dated 2019):

Tests used:
[1] = solubility of MILs in water; format: physicochemical
Excerpt: Independent of the substituent functional groups imparted by the quaternization reaction, MILs 1-3 were immiscible with water at compositions as low as 0.1% (w/v) MIL. The hydrophobic properties of the monocationic MILs are thus useful for applications such as aqueous liquid-liquid microextractions, where extremely low phase ratios of extraction solvent are employed.

[2] = thermal stability by thermal gravimetric analysis (TGA); settings: temperature at which 5 wt % loss of MIL is observed
[3] = effective magnetic moment, Evans magnetic susceptibility balance; format: physicochemical; settings: measured at 295K
Excerpt: The paramagnetic properties of MILs provide a unique advantage over conventional ILs by permitting control over substrate motion through the application of an external magnetic field. […] The general expression for molar magnetic susceptibility using the Evans balance is shown in eq 1:
[formula] where XM represents the molar magnetic susceptibility, Cbal is the balance calibration constant, L corresponds to the length of the sample in the tube, M is the molecular weight of the compound being measured, R is the instrument reading for the sample in the tube, Ro is the instrument reading for the empty sample tube, and m is the mass of sample introduced into the Evan's balance. From XM, it is possible to calculate μeff according to eq 2: μeff=2.83√{square root over (XMT)} (2) where T is the absolute temperature. […] In order to increase the magnetic susceptibility of MILs, multiple paramagnetic iron(III) centers were incorporated into the MIL structure. […] The iron(III)-based MILs represent an inexpensive and useful alternative to MILs based on lanthanides, such as Dy(III) (μeff=10.6 μB). Moreover, the higher response of MILs 10 and 11 toward magnetic fields enables the use of smaller magnets with lower field strength for their manipulation in solution, which is useful in miniaturized magnet-based systems.

[4] = solubility of MILs in hexanes; format: physicochemical
[5] = target: T1, albumin from chicken egg white (Gallus gallus, UniProt P01012); assay: MIL-based DDE, coextraction of protein from stDNA/albumin matrix; settings: pH 4.4; albumin 3.4 μM, stDNA 4.17 nM
T1 construct: albumin from chicken egg white; purchased Sigma-Aldrich (St. Louis, Mo., USA); host or cells: chicken egg white (natural source)
T1 sequence (P01012 1-386): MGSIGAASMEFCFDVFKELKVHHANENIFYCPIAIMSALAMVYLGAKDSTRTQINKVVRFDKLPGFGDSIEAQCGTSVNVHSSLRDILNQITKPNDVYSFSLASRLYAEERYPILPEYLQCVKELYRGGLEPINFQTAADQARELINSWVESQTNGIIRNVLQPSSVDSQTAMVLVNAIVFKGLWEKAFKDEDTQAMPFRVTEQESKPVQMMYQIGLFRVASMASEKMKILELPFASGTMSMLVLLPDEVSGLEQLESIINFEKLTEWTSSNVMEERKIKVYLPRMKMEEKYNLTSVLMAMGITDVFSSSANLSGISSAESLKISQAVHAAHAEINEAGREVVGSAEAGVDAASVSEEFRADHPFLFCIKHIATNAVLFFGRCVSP
Method: High performance liquid chromatography with UV detection was performed on a LC-20A liquid chromatograph (Shimadzu, Japan) consisting of two LC-20AT pumps, a SPD-20 UV/vis detector, and a DGU-20A3 degasser. Chromatographic separations were performed on a 35 mm×4.6 mm i.d.×2.5 μm TSKgel DEAE-NPR anion exchange column with a 5 mm×4.6 mm i.d.×5 μm TSKgel DEAE-NPR guard column from Tosoh Bioscience (King of Prussia, Pa.). The column was equilibrated with a mobile phase composition of 50:50 (A) 20 mM Tris-HCl (pH 8), and (B) 1 M NaCl/20 mM Tris-HCl (pH 8). For stDNA analysis, gradient elution was performed beginning with 50% mobile phase B and increased to 100% B over 10 min. In the separation of ssDNA as well as DNA and albumin, the column was first equilibrated with 20 mM Tris-HCl followed by gradient elution from 0% to 50% B over 10 min and then 50% to 100% B over 5 min. A flow rate of 1 mL min−1 was used for all HPLC separations. DNA and albumin were detected at 260 and 280 nm, respectively.
Sample matrices containing either metal ions or protein (albumin) were prepared from stock solutions. A sample solution containing 388 mM NaCl, 153 mM KCl, 38.1 mM CaCl2.2H2O, 28.3 mM MgCl2.6H2O, and 4.17 nM stDNA was extracted in triplicate using MIL-based DDE for all three MILs. For experiments involving protein as a matrix component, the samples were prepared at an albumin concentration of 3.4 μM and stDNA concentration of 4.17 nM with the pH varied from 3.5 to 8.

Compound	solubility in water [1]	thermal stability [2]	μeff (effective magnetic moment) [3]	solubility in hexanes [4]	albumin extraction efficiency [5]
benzyltrioctylammonium bromotrichloroferrate(III) [MIL 1]	I^d (Insoluble at 0.1% (w/v))	258 °C	5.26 μB	I	5.0%
CCCCCCCCCCCCCCCCn1c[n+](CCCCCCCCCCCC[n+]2cn(CCCCCCCCCCCCCCCC)c3ccccc32)c2ccccc21.[Cl][Fe-]([Cl])([Cl])[Br].[Cl][Fe-]([Cl])([Cl])[Br] [MIL 6c]	I^e (Insoluble at 0.25% (w/v))	–	7.58 μB	–	–
CCCCCCCC[N+](CCCCCCCC)(CCCCCCCC)Cc1ccc(C(C)(C)C)cc1.[Cl][Fe-]([Cl])([Cl])[Br] [MIL 3]	I^d (Insoluble at 0.1% (w/v))	–	5.68 μB	–	–
CCCCCCCCCCCCCCCCn1c[n+](CCCCCCCCCCCC[n+]2ccn(Cc3ccccc3)c2)c2ccccc21.O=S(=O)([N-]S(=O)(=O)C(F)(F)F)C(F)(F)F.[Cl][Fe-]([Cl])([Cl])[Br] [MIL 8]	I^d (Insoluble at 0.1% (w/v))	–	5.30 μB	–	–
O=S(=O)([N-]S(=O)(=O)C(F)(F)F)C(F)(F)F.[Cl][Fe-]([Cl])([Cl])[Br].c1ccc(Cn2c[n+](CCCCCCCCCCCC[n+]3cn(Cc4ccccc4)c4ccccc43)c3ccccc32)cc1 [MIL 7]	I^d (Insoluble at 0.1% (w/v))	–	5.45 μB	–	–
CCCCCCCCCCCCCC[P+](CCCCCC)(CCCCCC)CCCCCC.[Cl][Fe-]([Cl])([Cl])[Cl] [[P6,6,6,14+][FeCl4−], trihexyl(tetradecyl)phosphonium tetrachloroferrate(III), reference compound]	–	–	–	–	~40%
CCCCCCCCCCCCCCCCn1cc[n+](CCCCCCCCCCCC[n+]2ccn(CCCCCCCCCCCCCCCC)c2C)c1C.O=S(=O)([N-]S(=O)(=O)C(F)(F)F)C(F)(F)F.[Cl][Fe-]([Cl])([Cl])[Br] [MIL 4b]	I^e (Insoluble at 0.25% (w/v))	–	5.37 μB	–	–
CCCCCCCCSCCC[n+]1ccn(Cc2cc(Cn3cc[n+](CCCSCCCCCCCC)c3)cc(Cn3cc[n+](CCCSCCCCCCCC)c3)c2)c1.[Cl][Fe-]([Cl])([Cl])[Br].[Cl][Fe-]([Cl])([Cl])[Br].[Cl][Fe-]([Cl])([Cl])[Br] [MIL 11]	I^e (Insoluble at 0.25% (w/v))	–	11.76 μB	–	–
CCCCCCCCCCCCCCCCn1c[n+](CCCCCCCCCCCC[n+]2cn(CCCCCCCCCCCCCCCC)c3ccccc32)c2ccccc21.O=S(=O)([N-]S(=O)(=O)C(F)(F)F)C(F)(F)F.[Cl][Fe-]([Cl])([Cl])[Br] [MIL 6]	Id	–	5.69 μB	–	~40%
CCCCCCCC[N+](CCCCCCCC)(CCCCCCCC)Cc1cccc(OC)c1.[Cl][Fe-]([Cl])([Cl])[Br] [MIL 2]	I^d (Insoluble at 0.1% (w/v))	–	5.60 μB	–	–
